Results as given in ChEMBL document CHEMBL1150588, “New nitrogenous eudesmane-type compounds isolated from the Caribbean sponge Axinyssa ambrosia” (J Nat Prod, 2002).

What was measured:
Madracis mirabilis [1] = assay: Toxicity against Madracis mirabilis polyps assessed as mortality at 10 ug/ml after 2 hrs; conditions: in vivo
A549 = assay: Cytotoxicity against human A549 cells; type: functional, cell-based
[2] = Toxicity against Madracis mirabilis polyps assessed as mortality after 2 hrs; type: organism-based; conditions: in vivo; read-out: LD50
HT-29 = assay: Cytotoxicity against human HT-29 cells; type: functional, cell-based
Madracis mirabilis [3] = assay: Toxicity against Madracis mirabilis polyps assessed as mortality at 7.75 ug/ml after 2 hrs; conditions: in vivo
P388 = assay: Cytotoxicity against mouse P388 cells; type: functional, cell-based
Madracis mirabilis [4] = assay: Toxicity against Madracis mirabilis assessed as retracted polyps at 10 ug/ml after 24 hrs; conditions: in vivo
Madracis mirabilis [5] = assay: Toxicity against Madracis mirabilis assessed as retraction recovery at 10 ug/ml after 48 hrs; conditions: in vivo

Compound | Activity (Madracis mirabilis [1]) | IC50 (A549) [µg/mL] | LC50 at 2 h [2] [µg/mL] | IC50 (HT-29) [µg/mL] | Activity (Madracis mirabilis [3]) | IC50 (P388) [µg/mL] | Activity (Madracis mirabilis [4]) | Activity (Madracis mirabilis [5]) [%]
C=C(C)[C@H]1CC[C@@]2(C)CCC[C@@](C)(N)[C@@H]2C1.Cl (relative stereo) | Toxic | 2 | 9.4 | 2 | Non-toxic | 2 |  | 
C=C(C)[C@H]1CC[C@@]2(C)CCC[C@@](C)(N)[C@@H]2C1 (relative stereo) |  |  |  |  |  |  | Active | 40
